Melting point and IC50 data for 16 molecules are collected here from patent US20020013324A1, “N-substituted imide derivatives with serotonergic activity” (American Home Products Corporation, priority 1999, published 2002).

For orientation: melting point means the temperature of the solid-liquid transition. As usually defined, the IC50 is the concentration at which inhibition is half-maximal.

Structures can show the parent of a compound that is named as a salt.

Test system in the first data set: not given
Experiment: not given
Conditions: not given
The molecule `COc1ccccc1N1CCN(C[C@@H](C)N(C(=O)c2ccccc2)C(=O)c2ccccc2)CC1` (as salt: fumarate) (hydrate or solvate) [Example 16, (R)-N-Benzoyl-N-{1-methyl-2-[4-(2-methoxyphenyl)-piperazin-1-yl]-ethyl}-benzamide semifumarate-hemihydrate] displayed a melting point of 115 to 120 °C.
`COc1ccccc1N1CCN(C[C@@H](Cc2ccccc2)N(C(=O)C2CCCCC2)C(=O)C2CCCCC2)CC1` (as salt: fumarate) [Example 10, (R)-Cyclohexanecarboxylic acid cyclohexanecarbonyl-{1-benzyl)-2-[4-(2-methoxy-phenyl)-piperazin-1yl]-ethyl}-amide fumarate] gave a melting point of 146 to 147 °C.
Still for that read-out and setting: to `O=C(C1CCCCC1)N(CCN1CCN(c2cccc3c2OCCO3)CC1)C(=O)C1CCCCC1` (as salt: hydrochloride) (hydrate or solvate) [Example 8, Cyclohexanecarboxylic acid cyclohexanecarbonyl-{2-[4-(2,3-dihydro-benzo[1,4]-dioxin)-5-yl}-piperazin-1-yl]-ethyl}-amide sesquihydrochloride monohydrate] belongs 148 to 149 °C; to `O=C(c1ccccc1)N(CCN1CCN(c2cccc3c2OCCO3)CC1)C(=O)C1CCCCC1` (as salt: hydrochloride) (hydrate or solvate) [Example 14, Cyclohexanecarboxylic acid benzoyl-{2-[4-(2,3-dihydro-benzo[1,4]dioxin-5-yl)-1-piperazin-1-ylethyl]-amide hydrochloride sesquihydrate], 169 to 171 °C; to `COc1ccc(C[C@H](CN2CCN(c3ccccc3OC)CC2)N(C(=O)C2CCCCC2)C(=O)C2CCCCC2)cc1` (as salt: hydrochloride) [Example 11, (R)-Cyclohexanecarboxylic acid cyclohexanecarbonyl-{1-(4-methoxybenzyl)-2-[4-(2-methoxyphenyl)-piperazin-1-yl]-etlyl}-amide hydrochloride], 106 to 108 °C.
In the case of `COc1ccccc1N1CCN(C[C@@H](Cc2cn(C)c3ccccc23)N(C(=O)C2CCCCC2)C(=O)C2CCCCC2)CC1.Cl.O` (hydrate or solvate) [Example 12, (R)-Cyclohexanecarboxylic acid cyclohexanecarbonyl-{1-[4-(2-methoxyphenyl)-piperazin-1-ylmethyl]-2-(1-methyl-1H-indol-3-yl)ethyl}-amide hydrochloride monohydrate], the melting point was in the range of 136 to 138 °C.
Molecule `COc1ccccc1N1CCN(CCN(C(=O)C2CCCCC2)C(=O)C2CCCCC2)CC1.Cl.Cl` [Example 6, Cyclohexanecarboxylic acid cyclohexanecarbonyl-{2-[4-(2-methoxyphenyl)-piperazin-1-yl]-ethyl}-amide dihydrochloride] came in with a melting point of 159 to 160 °C.
In turn, `Cl.Cl.O=C(C1CCCCC1)N(CCN1CCN(c2cccc3[nH]ccc23)CC1)C(=O)C1CCCCC1` [Example 7, Cyclohexanecarboxylic acid cyclohexanecarbonyl-{2-[4-(1H-indol-4-yl)-piperazin-1-yl]-ethyl}-amide dihydrochloride] returned a melting point of 144 to 146 °C.

A further data set has as its target T1, human 5-HT1A receptor (Homo sapiens, UniProt P08908).
T1 construct: expressed in transfected cells; host or cells: CHO cells (stably transfected)
T1 sequence (P08908 1-422): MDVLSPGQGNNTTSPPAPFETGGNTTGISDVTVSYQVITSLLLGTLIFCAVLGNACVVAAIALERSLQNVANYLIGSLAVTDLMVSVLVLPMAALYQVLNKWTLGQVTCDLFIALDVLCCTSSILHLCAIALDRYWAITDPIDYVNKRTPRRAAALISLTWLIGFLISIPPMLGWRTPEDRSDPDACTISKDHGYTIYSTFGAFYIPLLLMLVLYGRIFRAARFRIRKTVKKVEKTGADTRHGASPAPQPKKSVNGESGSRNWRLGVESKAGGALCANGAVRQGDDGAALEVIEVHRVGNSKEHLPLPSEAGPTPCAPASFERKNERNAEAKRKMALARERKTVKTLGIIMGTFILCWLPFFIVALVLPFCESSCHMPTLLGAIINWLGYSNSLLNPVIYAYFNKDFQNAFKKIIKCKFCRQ
The data set is described as follows: Displacement of [3H]8-OH-DPAT from the 5-HT1A receptor in transfected CHO cells. Conditions: [3H]-8-OH-DPAT 1.5 nM; CHO cells with human 5-HT1A receptor; nonspecific binding with 10 μM 5-HT; room temperature; read-out: 5-HT1A Affinity (IC50). The text has this: Affinity for the serotonin 5-HT1A receptor was established by assaying the test compound's ability to displace [3H]8-OHDPAT (dipropylaminotetralin) from its binding site on the receptor complex in CHO cells stably transfected with the human 5-HT1A receptor following a variation of a procedure of J. Zgombick et al., Naunyn-Schmiedeberg's Arch. Pharmacol., 354, 226-236 (1996), as described by J. Dunlop, Y. Zhang, D. L. Smith and L. E. Schechter, Journal of Pharmacological and Toxicological Methods 40, 47-55 (1998). The variation includes: the use of cells containing clonal human 5-HT1A receptor in place of 5-HT1D receptor; the use of [3H]-8-OH-DPAT (1.5 nM) as radioligand in place of [3H]-LSD; nonspecific binding determined with 10 μM 5-HT; and the test procedure was run at room temperature rather than 37° C.
In the case of `COc1ccccc1N1CCN(CCN(C(=O)C2CCCCC2)C(=O)C2CCCCC2)CC1.Cl.Cl` [Example 6, Cyclohexanecarboxylic acid cyclohexanecarbonyl-{2-[4-(2-methoxyphenyl)-piperazin-1-yl]-ethyl}-amide dihydrochloride], the IC50 came out at 3.1 nM.
The same measure, in the same setting: then `Cl.Cl.O=C(C1CCCCC1)N(CCN1CCN(c2cccc3[nH]ccc23)CC1)C(=O)C1CCCCC1` [Example 7, Cyclohexanecarboxylic acid cyclohexanecarbonyl-{2-[4-(1H-indol-4-yl)-piperazin-1-yl]-ethyl}-amide dihydrochloride], with 4.55 nM; and `O=C(C1CCCCC1)N(CCN1CCN(c2cccc3c2OCCO3)CC1)C(=O)C1CCCCC1` [Example 8, Cyclohexanecarboxylic acid cyclohexanecarbonyl-{2-[4-(2,3-dihydro-benzo[1,4]-dioxin)-5-yl}-piperazin-1-yl]-ethyl}-amide sesquihydrochloride monohydrate], with 4.77 nM.
Same read-out and setting: then `COc1ccccc1N1CCN(C[C@@H](Cc2ccccc2)N(C(=O)C2CCCCC2)C(=O)C2CCCCC2)CC1` [Example 10, (R)-Cyclohexanecarboxylic acid cyclohexanecarbonyl-{1-benzyl)-2-[4-(2-methoxy-phenyl)-piperazin-1yl]-ethyl}-amide fumarate], with 61 nM; and `COc1ccc(C[C@H](CN2CCN(c3ccccc3OC)CC2)N(C(=O)C2CCCCC2)C(=O)C2CCCCC2)cc1` [Example 11, (R)-Cyclohexanecarboxylic acid cyclohexanecarbonyl-{1-(4-methoxybenzyl)-2-[4-(2-methoxyphenyl)-piperazin-1-yl]-etlyl}-amide hydrochloride], with 0.38 nM.
In the case of `COc1ccccc1N1CCN(C[C@@H](Cc2cn(C)c3ccccc23)N(C(=O)C2CCCCC2)C(=O)C2CCCCC2)CC1` [Example 12, (R)-Cyclohexanecarboxylic acid cyclohexanecarbonyl-{1-[4-(2-methoxyphenyl)-piperazin-1-ylmethyl]-2-(1-methyl-1H-indol-3-yl)ethyl}-amide hydrochloride monohydrate], the IC50 came out at 0.78 nM.
Same read-out and setting: to `O=C(c1ccccc1)N(CCN1CCN(c2cccc3c2OCCO3)CC1)C(=O)C1CCCCC1` [Example 14, Cyclohexanecarboxylic acid benzoyl-{2-[4-(2,3-dihydro-benzo[1,4]dioxin-5-yl)-1-piperazin-1-ylethyl]-amide hydrochloride sesquihydrate] belongs 5.13 nM.
Still for that read-out and setting: to `COc1ccccc1N1CCN(CCN(C(=O)c2ccccc2)C(=O)c2ccccc2)CC1` [Example 15, N-Benzoyl-N-{-2-[4-(2-methoxyphenyl)-piperazin-1-yl]-ethyl}-benzamide hydrochloride hemihydrate] belongs 23.4 nM.
As to `COc1ccccc1N1CCN(C[C@@H](C)N(C(=O)c2ccccc2)C(=O)c2ccccc2)CC1` [Example 16, (R)-N-Benzoyl-N-{1-methyl-2-[4-(2-methoxyphenyl)-piperazin-1-yl]-ethyl}-benzamide semifumarate-hemihydrate], the concentration for half-maximal inhibition (IC50) worked out at 79.6 nM.
On the same count and under the same terms, then “(R)-Cyclohexanecarboxylic acid cyclohexanecarbonyl-{1-methyl-2-[4-(2-methoxyphenyl)-piperazin-2-yl]-ethyl}-amide fumarate [Example 9]”, with 2.69 nM.
